The values that follow come from ChEMBL document CHEMBL4312013 (Eur J Med Chem, 2020).

For data set [1], the system named is Pseudomonas aeruginosa. In words: microbe, parasite or virus in culture. The format is functional. To be noted: ATCC 27853, 18 h.
The test system of data set [2] is Pseudomonas aeruginosa. Briefly: microbe, parasite or virus in culture. To be noted: ATCC 15442, 18 h. It is filed as functional.
Data set [3] concerns Staphylococcus aureus. In words: microbe, parasite or virus in culture. It is filed as functional. As to conditions: ATCC 6538, 18 h.
For data set [4], the system named is Staphylococcus aureus. In words: microbe, parasite or virus in culture. It is filed as functional. To be noted: ATCC 29213, 18 h.
Data set [5] has as its system Escherichia coli. Briefly: microbe, parasite or virus in culture. The format is functional. As to conditions: NCTC 8196, 18 h.
Data set [6] has as its system Staphylococcus epidermidis. In words: microbe, parasite or virus in culture. The format is functional. As to conditions: ATCC 12228, 18 h.
Data set [7] relates to Escherichia coli. Briefly: microbe, parasite or virus in culture. The format is functional. To be noted: ATCC 25922, 18 h.
The subject of a further data set is Enterococcus hirae. Briefly: microbe, parasite or virus in culture. The format is functional. To be noted: ATCC 10541, 18 h.
Data set [8] concerns Staphylococcus aureus. Briefly: microbe, parasite or virus in culture. It is filed as functional. As to conditions: NCTC 4163, 18 h.
Data set [9] has as its system HaCaT. Briefly: Reduction of IL-6 level in human HaCaT cells at antiproliferative IC50 incubated for 72 hrs by ELISA relative to control. It is filed as cell-based. In general terms: In an ELISA, binding on a coated surface is turned into a signal by an enzyme label.
The subject of data set [10] is PC-3. In words: Cytotoxicity against human PC3 cells at 60 uM incubated for 72 hrs by LDH release assay (reference value: […]). It is filed as functional.
Data set [11] concerns PC-3. In words: Cytotoxicity against human PC3 cells at 20 uM incubated for 72 hrs by LDH release assay (reference value: […]). It is filed as functional. For orientation: Release of lactate dehydrogenase indicates damage to the cell membrane.
The subject of data set [12] is SW-620. Briefly: Reduction of IL-6 level in human SW620 cells at antiproliferative IC50 incubated for 72 hrs by ELISA relative to control. The format is functional.
Data set [13] relates to HaCaT. Briefly: Induction of apoptosis in human HaCaT cells at antiproliferative IC50 incubated for 72 hrs by annexin V FITC and PI staining based flow cytometry. It is filed as cell-based. For orientation: A flow cytometer gives signals particle by particle.
Data set [14] concerns PC-3. In words: Induction of apoptosis in human PC3 cells assessed as necrotic cells at antiproliferative IC50 incubated for 72 hrs by annexin V FITC and PI staining based flow cytometry (reference value: […]). The format is functional.
Data set [15] concerns PC-3. In words: Induction of apoptosis in human PC3 cells assessed as late apoptotic cells at antiproliferative IC50 incubated for 72 hrs by annexin V FITC and PI staining based flow cytometry (reference value: […]). It is filed as functional.
Data set [16] deals with SW480. In words: Cytotoxicity against human SW480 cells at 20 uM incubated for 72 hrs by LDH release assay (reference value: […]). It is filed as functional.
In data set [17] the test system is PC-3. Briefly: Cytotoxicity against human PC3 cells at 40 uM incubated for 72 hrs by LDH release assay (reference value: […]). The format is functional.
In data set [18] the test system is SW-620. Briefly: Induction of apoptosis in human SW620 cells at antiproliferative IC50 incubated for 72 hrs by annexin V FITC and PI staining based flow cytometry. It is filed as functional.
Data set [19] relates to SW480. Briefly: Reduction of IL-6 level in human SW480 cells at antiproliferative IC50 incubated for 72 hrs by ELISA relative to control. The format is functional.
For data set [20], the system named is PC-3. In words: Induction of apoptosis in human PC3 cells assessed as early apoptotic cells at antiproliferative IC50 incubated for 72 hrs by annexin V FITC and PI staining based flow cytometry (reference value: […]). The format is functional.
The subject of data set [21] is SW-620. Briefly: Cytotoxicity against human SW620 cells at 40 uM incubated for 72 hrs by LDH release assay (reference value: 4.2 %). It is filed as functional.
Data set [22] relates to SW-620. Briefly: Cytotoxicity against human SW620 cells at 10 uM incubated for 72 hrs by LDH release assay (reference value: 4.2 %). It is filed as functional.
The test system of data set [23] is SW480. In words: Cytotoxicity against human SW480 cells at 10 uM incubated for 72 hrs by LDH release assay (reference value: […]). The format is functional.
The subject of data set [24] is SW480. Briefly: Cytotoxicity against human SW480 cells at 60 uM incubated for 72 hrs by LDH release assay (reference value: […]). It is filed as functional.
The subject of data set [25] is SW-620. In words: Cytotoxicity against human SW620 cells at 60 uM incubated for 72 hrs by LDH release assay (reference value: 4.2 %). It is filed as functional.
The subject of data set [26] is SW480. Briefly: Cytotoxicity against human SW480 cells at 40 uM incubated for 72 hrs by LDH release assay (reference value: […]). It is filed as functional.
For data set [27], the system named is SW-620. Briefly: Cytotoxicity against human SW620 cells at 20 uM incubated for 72 hrs by LDH release assay (reference value: 4.2 %). The format is functional.
Data set [28] concerns PC-3. In words: Induction of apoptosis in human PC3 cells assessed as viable cells at antiproliferative IC50 incubated for 72 hrs by annexin V FITC and PI staining based flow cytometry (reference value: 95.1 %). It is filed as functional.
The subject of data set [29] is PC-3. In words: Cytotoxicity against human PC3 cells at 10 uM incubated for 72 hrs by LDH release assay (reference value: […]). It is filed as functional.
In data set [30] the test system is SW480. In words: Antiproliferative activity against human SW480 cells assessed as reduction in cell viability incubated for 72 hrs by MTT assay. To be noted: SW480, 72 h. The format is functional, cell-based.
Data set [31] relates to HaCaT. Briefly: Cytotoxicity against human HaCaT cells assessed as reduction in cell viability incubated for 72 hrs by MTT assay. The format is cell-based.
For data set [32], the system named is PC-3. In words: Antitumor activity against human PC3 cells assessed as reduction in IL-6 level at antiproliferative IC50 incubated for 72 hrs by ELISA relative to control. The format is functional.

Values after ≈ are worked out from the molar mass of the structure shown. Active and inactive are the calls of the source. The calls are words filed in the database; no cut-off is given here. Bounds are passed on as bounds.

For orientation: IC50 means the point on the concentration scale where inhibition reaches its midpoint.

`CC(C)=CCC/C(C)=C/C(=O)O`: the MIC is 512 µg/mL (≈ 3040 µM) against Pseudomonas aeruginosa [1]; 512 µg/mL (≈ 3040 µM) in the data set on Pseudomonas aeruginosa [2]; more than 512 µg/mL in the data set on Staphylococcus aureus [3]; more than 512 µg/mL in the data set on Staphylococcus aureus [4]; more than 512 µg/mL against Escherichia coli [5]; 512 µg/mL (≈ 3040 µM) in data set [6]. Besides, the MIC against Escherichia coli [7] was 512 µg/mL (≈ 3040 µM); in the data set on Enterococcus hirae, 512 µg/mL (≈ 3040 µM); against Staphylococcus aureus [8], more than 512 µg/mL.

As to `O=C(O)c1cn(C2CC2)c2cc(N3CCNCC3)c(F)cc2c1=O` [CIPROFLOXACIN], the Activity result in the data set on HaCaT [9] is “Active”; in the data set with PC-3 [10], 18%; with PC-3 [11], 16.5%; in the data set with HaCaT [13], 6.2 to 12%; in the data set on PC-3 [14], 3.9%; with PC-3 [15], 31.1%. The Activity is 14.2% with SW480 [16]; 17.5% with PC-3 [17]; 31.4 - 39.2% in the data set with SW-620 [18]; 5.3% with PC-3 [20]; 9.1% in the data set on SW-620 [21]; 8.1% in the data set on SW-620 [22]. Further, the Activity is recorded as 12% in the data set on SW480 [23]; 15% in the data set with SW480 [24]; 9.3% in the data set with SW-620 [25]; 14.5% in the data set on SW480 [26]; 8.9% in the data set with SW-620 [27]; 59.7% with PC-3 [28]. This compound also showed an Activity in the data set on PC-3 [29] of 14%. In addition, the MIC against Staphylococcus aureus [3] amounted to 0.5 µg/mL (≈ 1.51 µM); with Staphylococcus aureus [4], 0.5 µg/mL (≈ 1.51 µM); in data set [6], 0.25 µg/mL (≈ 0.754 µM); with Enterococcus hirae, 8 µg/mL (≈ 24.1 µM); in the data set on Staphylococcus aureus [8], 0.25 µg/mL (≈ 0.754 µM). Moreover, the outcome in the data set with SW-620 [12] and with SW480 [19] was Active.

Regarding `C/C=C/C(=O)O` [CROTONIC ACID], the MIC (with Pseudomonas aeruginosa [1]; against Pseudomonas aeruginosa [2]; in the data set with Staphylococcus aureus [3]; in the data set on Staphylococcus aureus [4]; against Escherichia coli [5]; in [6]) was more than 512 µg/mL in each case. Moreover, the MIC in the data set on Escherichia coli [7], in the data set on Enterococcus hirae and in the data set on Staphylococcus aureus [8] was more than 512 µg/mL in each case.

With `COc1cccc2c1C(=O)c1c(O)c3c(c(O)c1C2=O)C[C@@](O)(C(=O)CO)C[C@@H]3O[C@H]1C[C@H](N)[C@H](O)[C@H](C)O1` [DOXORUBICIN], the result in the data set with HaCaT [9] was Active. Also, the IC50 is 750 nM in the data set on SW480 [30] and 290 nM with HaCaT [31]. Further, the outcome with SW-620 [12], in the data set on SW480 [19] and with PC-3 [32] was Active.

`CCCCCCCC/C=C/CCCCCCCC(=O)O` [ELAIDIC ACID]: the MIC (in the data set with Pseudomonas aeruginosa [1]; in the data set with Pseudomonas aeruginosa [2]; in the data set on Staphylococcus aureus [3]; against Staphylococcus aureus [4]; with Escherichia coli [5]; in data set [6]) was 512 µg/mL (≈ 1810 µM) in each case. In addition, the MIC in the data set on Escherichia coli [7], against Enterococcus hirae and in the data set on Staphylococcus aureus [8] was 512 µg/mL (≈ 1810 µM) throughout.

Regarding `CCCCCCCC/C=C\CCCCCCCCCCCC(=O)O` [ERUCIC ACID], the MIC in the data set on Pseudomonas aeruginosa [1] is 512 µg/mL (≈ 1510 µM); in the data set with Pseudomonas aeruginosa [2], 512 µg/mL (≈ 1510 µM); against Staphylococcus aureus [3], 128 µg/mL (≈ 378 µM); against Staphylococcus aureus [4] it was more than 512 µg/mL; in the data set on Escherichia coli [5], 512 µg/mL (≈ 1510 µM); in [6], 256 µg/mL (≈ 756 µM). Further, the figures for the MIC against Escherichia coli [7], against Enterococcus hirae and against Staphylococcus aureus [8] were more than 512 µg/mL, 64 µg/mL (≈ 189 µM) and more than 512 µg/mL, respectively.

For the compound `CC/C=C\C/C=C\C/C=C\CCCCCCCC(=O)O` [LINOLENIC ACID], the MIC was 512 µg/mL (≈ 1840 µM) in the data set on Pseudomonas aeruginosa [1]; 512 µg/mL (≈ 1840 µM) in the data set with Pseudomonas aeruginosa [2]; 128 µg/mL (≈ 460 µM) against Staphylococcus aureus [3]; 128 µg/mL (≈ 460 µM) against Staphylococcus aureus [4]; more than 512 µg/mL against Escherichia coli [5]; 512 µg/mL (≈ 1840 µM) in data set [6]. In addition, the MIC was more than 512 µg/mL in the data set on Escherichia coli [7], 512 µg/mL (≈ 1840 µM) with Enterococcus hirae and 128 µg/mL (≈ 460 µM) against Staphylococcus aureus [8].

Take `CCCCCCCC/C=C\CCCCCCCC(=O)O` [OLEIC ACID]: the MIC is 256 to 512 µg/mL (≈ 906 to 1810 µM) against Pseudomonas aeruginosa [1]; 512 µg/mL (≈ 1810 µM) with Pseudomonas aeruginosa [2]; 256 µg/mL (≈ 906 µM) against Staphylococcus aureus [3]; 256 to 512 µg/mL (≈ 906 to 1810 µM) against Staphylococcus aureus [4]; 512 µg/mL (≈ 1810 µM) with Escherichia coli [5]; 512 µg/mL (≈ 1810 µM) in [6]. The MIC is 512 µg/mL (≈ 1810 µM) in the data set on Escherichia coli [7], 128 to 256 µg/mL (≈ 453 to 906 µM) against Enterococcus hirae and 256 to 512 µg/mL (≈ 906 to 1810 µM) in the data set with Staphylococcus aureus [8].

On to `CCCCCCCCCCCCCCCC(=O)O` [PALMITIC ACID], for which the MIC (against Pseudomonas aeruginosa [1]; against Pseudomonas aeruginosa [2]; in the data set with Staphylococcus aureus [3]; in the data set on Staphylococcus aureus [4]; against Escherichia coli [5]; in [6]) was 512 µg/mL (≈ 2000 µM) in each case. For the same compound, the MIC against Escherichia coli [7], with Enterococcus hirae and against Staphylococcus aureus [8] was 512 µg/mL (≈ 2000 µM) in each case.

Turning to `C/C=C/C=C/C(=O)O` [SORBIC ACID], the MIC was 512 µg/mL (≈ 4570 µM) in the data set with Pseudomonas aeruginosa [1]; 512 µg/mL (≈ 4570 µM) in the data set with Pseudomonas aeruginosa [2]; more than 512 µg/mL with Staphylococcus aureus [3]; more than 512 µg/mL against Staphylococcus aureus [4]; more than 512 µg/mL against Escherichia coli [5]; more than 512 µg/mL in data set [6]. The MIC in the data set with Escherichia coli [7] is 512 µg/mL (≈ 4570 µM); in the data set on Enterococcus hirae, 512 µg/mL (≈ 4570 µM); against Staphylococcus aureus [8], more than 512 µg/mL.
